Test results taken from patent publication US7572779B2 (priority 2001, dated 2009).

Assay: Open-label, single-dose, randomized, crossover oral bioavailability study in healthy postmenopausal women volunteers
Conditions: single oral tablet
Source text: The study was an open-label, single-dose, randomized, crossover, bioavailability study in nine healthy postmenopausal women volunteers.
Comparison of treatments was based on ratio of least square means from analysis of variance and ratio of individual subject parameter values, e.g. ratio=(AUCtreatment A)/(AUCtreatment B).

CC(=O)Oc1ccc2c(c1)CC[C@@H]1[C@@H]2CC[C@]2(C)[C@@H](O)CC[C@@H]12 [17β-estradiol-3-acetate]
Absorption as indicated by shape of serum estradiol concentration-time profiles: rapidly absorbed and hydrolyzed to 17β-estradiol in vivo
